Reference: patent publication US8906904B2, “Alkoxy pyrazoles as soluble guanylate cyclase activators” (Boehringer Ingelheim International GmbH, priority 2012, dated 2014)
pEC50: −log10 of the molar value.

Biological target: T1, human soluble guanylate cyclase alpha 1 and beta 1 subunits (sGC) (Homo sapiens, UniProt Q02108+Q02153)
T1 construct: expressed in transfected cells; host or cells: Chinese hamster ovary (CHO) cells, stably transfected
T1 sequence (Q02108 1-690): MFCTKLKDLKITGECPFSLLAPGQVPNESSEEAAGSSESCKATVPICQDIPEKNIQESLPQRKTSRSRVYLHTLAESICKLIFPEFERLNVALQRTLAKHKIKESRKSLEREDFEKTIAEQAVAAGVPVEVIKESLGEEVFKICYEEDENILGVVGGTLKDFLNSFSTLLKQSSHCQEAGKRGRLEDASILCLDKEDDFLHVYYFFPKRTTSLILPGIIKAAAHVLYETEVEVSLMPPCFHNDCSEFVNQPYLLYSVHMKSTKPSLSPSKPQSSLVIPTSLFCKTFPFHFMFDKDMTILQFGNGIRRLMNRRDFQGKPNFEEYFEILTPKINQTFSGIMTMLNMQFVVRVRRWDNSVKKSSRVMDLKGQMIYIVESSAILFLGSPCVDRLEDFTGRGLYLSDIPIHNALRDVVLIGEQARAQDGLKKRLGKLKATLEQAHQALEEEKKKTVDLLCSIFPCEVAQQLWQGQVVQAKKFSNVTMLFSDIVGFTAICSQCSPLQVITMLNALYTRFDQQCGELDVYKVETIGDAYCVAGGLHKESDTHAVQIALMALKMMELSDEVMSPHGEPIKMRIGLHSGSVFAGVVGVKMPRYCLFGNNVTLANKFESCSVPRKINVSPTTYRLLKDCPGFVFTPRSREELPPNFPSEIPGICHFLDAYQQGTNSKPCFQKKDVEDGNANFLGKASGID
T1 sequence (Q02153 1-619): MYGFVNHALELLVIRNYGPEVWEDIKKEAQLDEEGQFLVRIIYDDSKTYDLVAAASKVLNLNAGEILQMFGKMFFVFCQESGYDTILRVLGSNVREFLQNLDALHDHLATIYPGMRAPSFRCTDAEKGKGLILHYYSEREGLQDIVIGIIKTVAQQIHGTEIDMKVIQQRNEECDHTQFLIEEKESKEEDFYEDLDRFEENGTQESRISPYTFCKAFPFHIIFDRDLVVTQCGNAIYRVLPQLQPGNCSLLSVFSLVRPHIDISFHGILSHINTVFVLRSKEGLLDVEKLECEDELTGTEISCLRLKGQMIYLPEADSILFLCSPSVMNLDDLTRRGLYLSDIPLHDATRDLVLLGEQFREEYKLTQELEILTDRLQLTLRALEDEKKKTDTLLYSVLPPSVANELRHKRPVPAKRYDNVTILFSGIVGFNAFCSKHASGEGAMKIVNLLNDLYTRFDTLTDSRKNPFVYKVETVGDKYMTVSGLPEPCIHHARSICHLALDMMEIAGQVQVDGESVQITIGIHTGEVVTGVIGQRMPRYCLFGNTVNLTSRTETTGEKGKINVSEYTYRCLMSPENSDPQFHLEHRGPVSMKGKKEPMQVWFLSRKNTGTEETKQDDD
Assay: sGC cellular activator assay (cGMP, HTRF)
Assay type: cell-based
Settings: CHO cells stably expressing human sGC alpha 1/beta 1, preincubated with 40 microM ODQ; cGMP readout; assay run with and without 50% human serum, Table 2 does not say which
Procedure, shortened: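 Heme-oxidized conditions: ODQ (40 microM, 1 h) pretreatment of CHO cells stably expressing human α1/β1 sGC, in buffer containing 0.1% BSA and IBMX.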

| pEC50 | SMILES |
| --- | --- |
| 8.33 | CCOc1c(C(=O)O)cnn1-c1cccc(-c2cccc(C)c2OCc2cc(C)c3c(c2)CCN([C@@H]2CCCOC2)C3)n1 [Compound 195] |
| 7.64 | COc1c(C(=O)O)cnn1-c1cccc(-c2cccc(C)c2OCc2ccc3c(c2C)CCN(C2COC2)C3)n1 [Compound 16] |
| 8.31 | COc1c(C(=O)O)cnn1-c1cccc(-c2cccc(C)c2OCc2cc(C)c3c(c2)CCN(C2CCCOC2)C3)n1 (stereo not shown) [Compound 237] |
| 8.00 | COc1c(C(=O)O)cnn1-c1cccc(-c2cccc(C)c2OCc2ccc3c(c2F)CCN([C@@H]2CCOC2)C3)n1 [Compound 252] |
| 7.41 | CCOc1c(C(=O)O)cnn1-c1cccc(-c2cccc(C)c2OCc2ccc3c(c2)CCN(C2COC2)CC3)n1 [Compound 213] |
| 7.21 | COc1c(C(=O)O)cnn1-c1cccc(-c2cccc(C)c2OCc2ccc3c(c2)C(C)(C)CN(C2CCCOC2)C3)n1 (stereo not shown) [Compound 218] |
| 7.60 | COc1c(C(=O)O)cnn1-c1cccc(-c2cccc(C)c2OCc2cc(F)c3c(c2)CCN([C@H]2CCOC2)C3)n1 [Compound 254] |
| 8.10 | COc1c(C(=O)O)cnn1-c1cccc(-c2cccc(C)c2OCc2ccc3c(c2Cl)CCN(C2CCOCC2)C3)n1 [Compound 18] |
| 7.85 | COc1c(C(=O)O)cnn1-c1cccc(-c2cccc(C)c2OCc2ccc3c(c2C)CCN(C2CCOCC2)C3)n1 [Compound 27] |
| 8.10 | CCOc1c(C(=O)O)cnn1-c1cccc(-c2cccc(C)c2OCc2cc(C)c3c(c2)CCN(C2CCOC2)C3)n1 (stereo not shown) [Compound 241] |
| 6.85 | COc1c(C(=O)O)cnn1-c1cccc(-c2cccc(C)c2OCc2ccc3c(c2)C(C)(C)CN(CC2COCCO2)C3)n1 (stereo not shown) [Compound 219] |
| 7.46 | COc1c(C(=O)O)cnn1-c1cccc(-c2cccc(C)c2OCc2ccc3c(c2)C(C)(C)CN(C2CCOC2)C3)n1 (stereo not shown) [Compound 217] |
| 8.04 | COc1c(C(=O)O)cnn1-c1cccc(-c2cccc(C)c2OCc2ccc3c(c2C)CCN([C@@H]2CCOC2)CC3)n1 [Compound 207] |
| 8.15 | COc1c(C(=O)O)cnn1-c1cccc(-c2cccc(C)c2OCc2ccc3c(c2F)CCN([C@H]2CCOC2)C3)n1 [Compound 251] |

The remaining lines, values behind:

| SMILES | pEC50 |
| --- | --- |
| COc1c(C(=O)O)cnn1-c1cccc(-c2cccc(C)c2OCc2ccc3c(c2Cl)CCN(CC2(C)COC2)C3)n1 [Compound 19] | 7.77 |
| COc1c(C(=O)O)cnn1-c1cccc(-c2cccc(C)c2OCc2ccc3c(c2C)CCN(C[C@@H]2CCCCO2)C3)n1 [Compound 198] | 8.28 |
| COc1c(C(=O)O)cnn1-c1cccc(-c2cccc(C)c2OCc2ccc3c(c2C)CCN(C2CCOCC2)CC3)n1 [Compound 184] | 7.92 |
| CCOc1c(C(=O)O)cnn1-c1cccc(-c2cccc(C)c2OCc2ccc3c(c2C)CCN(C[C@@H]2CCOC2)C3)n1 [Compound 189] | 7.92 |
| COCC(C)N1CCc2cc(COc3c(C)cccc3-c3cccc(-n4ncc(C(=O)O)c4OC)n3)ccc2C1 (stereo not shown) [Compound 23] | 7.28 |
| COc1c(C(=O)O)cnn1-c1cccc(-c2cccc(C)c2OCc2ccc3c(c2C)CCN(C[C@H]2CCCO2)CC3)n1 [Compound 222] | 8.27 |
| CCOc1c(C(=O)O)cnn1-c1cccc(-c2cccc(C)c2OCc2ccc3c(c2C)CCN([C@@H]2CCOC2)CC3)n1 [Compound 227] | 7.89 |
| CCOc1c(C(=O)O)cnn1-c1cccc(-c2cccc(C)c2OCc2ccc3c(c2C)CCN(C[C@H]2CCO2)CC3)n1 [Compound 226] | 7.92 |
| CCOc1c(C(=O)O)cnn1-c1cccc(-c2cccc(C)c2OCc2ccc3c(c2C)CCN(C[C@@H]2CCO2)CC3)n1 [Compound 228] | 7.85 |
| CCOc1c(C(=O)O)cnn1-c1cccc(-c2cccc(C)c2OCc2ccc3c(c2OC)CCN(C2COC2)C3)n1 [Compound 221] | 6.68 |
| CCOc1c(C(=O)O)cnn1-c1cccc(-c2cccc(C)c2OCc2ccc3c(c2OC)CCN(C2CCOCC2)C3)n1 [Compound 220] | 6.82 |
| COc1c(C(=O)O)cnn1-c1cccc(-c2cccc(C)c2OCc2cc(F)c3c(c2)CCN(C2CCOCC2)C3)n1 [Compound 201] | 7.92 |
| COCC(C)N1CCc2cc(COc3c(C)cccc3-c3cccc(-n4ncc(C(=O)O)c4OC)n3)cc(C)c2C1 (stereo not shown) [Compound 244] | 7.64 |
| COc1c(C(=O)O)cnn1-c1cccc(-c2cccc(C)c2OCc2ccc3c(c2C)CCN(C[C@H]2COCCO2)CC3)n1 [Compound 203] | 8.36 |
| CCOc1c(C(=O)O)cnn1-c1cccc(-c2cccc(C)c2OCc2ccc3c(c2C)CCN(C(C)COC)CC3)n1 (stereo not shown) [Compound 196] | 7.89 |
| COc1c(C(=O)O)cnn1-c1cccc(-c2cc(C)cc(C)c2OCc2ccc3c(c2)CCN(C2CCOCC2)C3)n1 [Compound 181] | 7.21 |
| CCOc1c(C(=O)O)cnn1-c1cccc(-c2cccc(C)c2OCc2ccc3c(c2C)CCN(C2CCOCC2)C3=O)n1 [Compound 194] | 7.06 |
